# Results published in patent US11478558B2, “Prostate-specific membrane antigen targeted high-affinity agents for endoradiotherapy of prostate cancer” (The Johns Hopkins University, priority 2017, dated 2022).
# Assays:
# [1] = system: PSMA(+) PC3 PIP and PSMA(−) PC3 flu tumor xenografts; assay: Biodistribution of 177Lu compounds (Example 5)
# PSMA+ PC3 PIP tumors = assay: Radiopharmaceutical therapy in PC3 PIP flank tumor growth delay model; assay type: in vivo, NOD/SCID mice; settings: for Median survival After 8 weeks post-treatment / Tumors above stated relative tumor growth after week 8 post-treatment (Vt/V0) / Mouse death (number of mice): 111 MBq; for Mouse death (number of mice): up to week 8 post-treatment; for Average final body weight: single i.v. dose 111 MBq (3 mCi)
# Experimental: (§1) A pilot treatment study using NOD/SCID mice (n=10 per group) bearing PSMA+ PC3 PIP tumors with a single intravenous dose of 111 MBq (3 mCi) of agents ^177Lu-PSMA-617, ^177Lu-1, ^177Lu-3 and ^177Lu-5 and the control group (with saline treatment) were performed (Table 8). Volume of the all control group mice reached >5-fold of their initial tumor volume within 14 days. Mouse euthanized for treated group within 4 weeks of post-injection was mainly due to sudden body weight loss and not related to tumor growth. […] The difference among treatment groups was statistically significant (P=0.002) by the log-rank test compared to the untreated group. […] After 8-weeks, three mice from each treated group were used for detailed blood analysis and necropsy study. All animals underwent radiotherapy study had normal creatinine (0.3-0.4 mg/dL) and blood urea nitrogen levels. […] Additionally, a significant lowering of platelet for all three treated mice from ^177Lu-PSMA-617 compared control group and other treated groups.
# Median survival for the ^177Lu-PSMA-617 was 133 days vs. 234 days for ^177Lu-1.
# The remaining treated mice survived tumor-free for 10 months and were evaluated for toxicity.
# (§2) Antitumor efficacy studies were performed in PC3 PIP flank tumor growth delay model to evaluate the therapeutic efficacy of a single dose intravenous injection of ^177Lu-L1, ^177Lu-L3, ^177Lu-L5 and ^177Lu-PSMA-617 vs. saline. This was a head-to-head comparison study and same batch of tumor-bearing mice and radioactivity. The study was commenced 14-18 days post-inoculation of the xenografts, when all the mice had tumor volume of about ˜60-85 mm^3 (Table 8). All the living mice were monitored for 8 weeks to monitor the growth delay. Mice body weight and tumor volume were monitored every 3 days throughout the experiment. Endpoint criteria defined by the institute ACUC was weight loss≥15%, a tumor volume>1800 mm^3, active ulceration of the tumor or abnormal behavior indicating pain or unease. After 8-weeks, three mice from each group were submitted for detail necropsy and blood analysis. Mice group treated with ^177Lu-1 and ^177Lu-PSMA-617 were continued to monitor until the endpoint. These definitions were also used for Kaplan-Meier analysis. The probability of reaching 5 times the initial tumor volume was characterized using Kaplan-Meier curves, and comparison was performed using the log-rank test. The formula used for calculation of tumor volume was V=width^2×length/2. Toxicity of the ^177Lu-treatment groups after 8-weeks and in healthy CD-1 (n=3) mice treated with 111 MBq was evaluated by pathologic examination at the Johns Hopkins Pathology Core facility with serum metabolic panel, blood counts, and full necropsy including detailed histopathology of kidneys, salivary glands and lacrimal glands.
# PSMA(−) PC3 flu cells = assay: Cell uptake in PSMA(−) PC3 flu cells; assay type: cell-based, human
# PSMA(+) PC3 PIP cells = assay: Cell uptake, cell surface binding and internalization in PSMA(+) PC3 PIP cells; assay type: cell-based, human; settings: for Blockade PC3 PIP: ZJ43 10 μM; for total uptake within the PSMA(+) PC3 PIP cells: 1 h to 24 h
# [2] = Blood analysis and necropsy after radiotherapy; assay type: in vivo, NOD/SCID mice
# Experimental: as §1
# Significant and concerning changes were identified in testes, and lacrimal grands primarily (FIG. 25) for all treated groups. […] Parotid glands, usually adjacent to exorbital lacrimal gland, are conspicuously spared and there were mild changes in the group treated ^177Lu-PSMA-617. […] T lymphoblastic lymphoma is accelerated by irradiation and some carcinogens, and is associated with interactions of endogenous retroviruses/retroelements in NOD/SCID mouse strains. […] The cells are large up to 25 μm, with very large nuclei (for a mouse) usually 2-3 nucleoli, and a high mitotic rate. Testis and lacrimal gland degenerative changes indicate that this animal did receive a treatment similar to other treated mice.
# as §2
# [3] = 111 MBq (3 mCi), after eight weeks, n=3
SMILES,Median survival After 8 weeks post-treatment (PSMA+ PC3 PIP tumors),Tumors above stated relative tumor growth after week 8 post-treatment (Vt/V0) (PSMA+ PC3 PIP tumors),Mouse death (number of mice) (PSMA+ PC3 PIP tumors),Average final body weight (PSMA+ PC3 PIP tumors),Cell uptake PC3 flu (PSMA(−) PC3 flu cells; 1 h),Cell uptake PC3 flu (PSMA(−) PC3 flu cells; 2 h),Cell uptake PC3 flu (PSMA(−) PC3 flu cells; 4 h),Cell uptake PC3 flu (PSMA(−) PC3 flu cells; 24 h),Cell uptake PC3 PIP (PSMA(+) PC3 PIP cells; 1 h),PC3 PIP cell Int (internalization) (PSMA(+) PC3 PIP cells; 1 h),Blockade PC3 PIP (PSMA(+) PC3 PIP cells; 1 h),total uptake within the PSMA(+) PC3 PIP cells (PSMA(+) PC3 PIP cells),Cell uptake PC3 PIP (PSMA(+) PC3 PIP cells; 2 h),"PC3 PIP, line without name (position of cell internalization) (PSMA(+) PC3 PIP cells; 2 h)",Cell uptake PC3 PIP (PSMA(+) PC3 PIP cells; 4 h),PC3 PIP cell int (internalization) (PSMA(+) PC3 PIP cells; 4 h),Cell uptake PC3 PIP (PSMA(+) PC3 PIP cells; 24 h),PC3 PIP cell int (internalization) (PSMA(+) PC3 PIP cells; 24 h),further results
O=C([O-])CN1CCN(CC(=O)[O-])CCN(CC(=O)N[C@H](CCCCNC(=O)CCCc2ccc(I)cc2)C(=O)N[C@@H](CCCCNC(=O)CCCCCCC(=O)NCCCC[C@H](NC(=O)N[C@@H](CCC(=O)O)C(=O)O)C(=O)O)C(=O)O)CCN(CC(=O)[O-])CC1.[177Lu+3] [^177Lu-14],–,–,–,–,–,–,–,–,–,–,–,–,–,–,–,–,–,–,Kidney uptake ([1]; 48 h): 17.47±4.18 % ID/g; blood uptake ([1]; 48 h): 2.48±0.44 % ID/g; initial kidney uptake ([1]; time not given): 49.49±19.55 % ID/g; fold clearance of kidney activity ([1]; to 48 h): ~3 fold
O=C([O-])CN1CCN(CC(=O)[O-])CCN(CC(=O)NCc2ccc(C(=O)NCCCCCC(=O)N(CCCC[C@H](NC(=O)N[C@@H](CCC(=O)O)C(=O)O)C(=O)O)Cc3ccc(Br)cc3)cc2)CCN(CC(=O)[O-])CC1.[177Lu+3] [^177Lu-L3],Not reached,Two tumor > 4,Mouse death 3,25.8 ± 2.6 gram,0.1 ± 0.0 % incubated dose per 1 x 10^6 cells,0.1 ± 0.0 % incubated dose per 1 x 10^6 cells,0.1 ± 0.1 % incubated dose per 1 x 10^6 cells,0.1 ± 0.0 % incubated dose per 1 x 10^6 cells,27.0 ± 1.3 % incubated dose per 1 x 10^6 cells,21.4 ± 1.4 % incubated dose per 1 x 10^6 cells,0.1 ± 0.0 % incubated dose per 1 x 10^6 cells,~30 % of the incubated dose,36.5 ± 0.3 % incubated dose per 1 x 10^6 cells,23.7 ± 0.2 % incubated dose per 1 x 10^6 cells,32.6 ± 8.5 % incubated dose per 1 x 10^6 cells,24.9 ± 3.4 % incubated dose per 1 x 10^6 cells,45.2 ± 1.2 % incubated dose per 1 x 10^6 cells,30.0 ± 0.7 % incubated dose per 1 x 10^6 cells,–
O=C([O-])CN1CCN(CC(=O)[O-])CCN(CC(=O)NCc2ccc(C(=O)NCCCCNC(=O)CCCCCCC(=O)N(CCCC[C@H](NC(=O)N[C@@H](CCC(=O)O)C(=O)O)C(=O)O)Cc3ccc(Br)cc3)cc2)CCN(CC(=O)[O-])CC1.[177Lu+3] [^177Lu-L5],Not reached,one tumor > 5,Mouse death 3,27.5 ± 1.9 gram,0.2 ± 0.1 % incubated dose per 1 x 10^6 cells,0.0 ± 0.0 % incubated dose per 1 x 10^6 cells,0.1 ± 0.0 % incubated dose per 1 x 10^6 cells,0.1 ± 0.0 % incubated dose per 1 x 10^6 cells,26.6 ± 0.6 % incubated dose per 1 x 10^6 cells,24.1 ± 0.5 % incubated dose per 1 x 10^6 cells,0.0 ± 0.0 % incubated dose per 1 x 10^6 cells,~30 % of the incubated dose,29.23 ± 0.8 % incubated dose per 1 x 10^6 cells,25.0 ± 0.9 % incubated dose per 1 x 10^6 cells,34.4 ± 1.2 % incubated dose per 1 x 10^6 cells,26.1 ± 1.0 % incubated dose per 1 x 10^6 cells,49.8 ± 1.4 % incubated dose per 1 x 10^6 cells,27.9 ± 0.8 % incubated dose per 1 x 10^6 cells,"PSMA(+) PC3 PIP tumor uptake ([1]; 3 h post-injection): 56.3±18.3 % ID/g; Albumin [2, 3]: 3 ± 0.4 g/dL; Blood urea nitrogen [2, 3]: 22.7 ± 3.2 mg/dL; Hematocrit [2, 3]: 49.7 ± 2.4%; Hemoglobin [2, 3]: 14.3 ± 1.0 g/dL; Lymphocytes [2, 3]: 0.4 ± 0.1 K/μL; Mean Corpuscular Value(MCV) [2, 3]: 54.1 ± 1.4 fL; Neutrophils [2, 3]: 2.0 ± 1.8 K/μL; Platelets [2, 3]: 1415.3 ± 88.5 K/μL; Red blood cells [2, 3]: 9.2 ± 0.7 M/μL; Total protein [2, 3]: 5.9 ± 0.6 g/dL; White blood cells [2, 3]: 2.9 ± 1.8 K/μL; H&E pathology of testis ([2]; 111 MBq, after 8 weeks): most significant changes in testis"
O=C([O-])CN1CCN(CC(=O)[O-])CCN(CC(=O)O)C(Cc2ccc(NC(=S)NCCCCC(=O)NCCCC[C@H](NC(=O)N[C@@H](CCC(=O)O)C(=O)O)C(=O)O)cc2)CN(CC(=O)[O-])CC1.[177Lu+3] (stereo partly shown) [^177Lu-L7],–,–,–,–,–,–,–,–,–,–,–,–,–,–,–,–,–,–,"PSMA(+) PC3 PIP tumor uptake ([1]; 2 h): 25.4±7.2 % ID/g; PSMA(+) PC3 PIP tumor uptake ([1]; 24 h post-injection): 7.0±1.5 % ID/g; PSMA(+) PC3 PIP tumor uptake ([1]; 48 h): 7.0±3.3 % ID/g; PSMA(+) PC3 PIP tumor uptake ([1]; fourth time point, time not given): 2.3±0.0 % ID/g"
O=C([O-])CN1CCN(CC(=O)[O-])CCN(CC(=O)NCC2CCC(C(=O)N(CCCCC(NC(=O)NC(CCC(=O)O)C(=O)O)C(=O)O)Cc3ccc(Br)cc3)CC2)CCN(CC(=O)[O-])CC1.[177Lu+3] (stereo not shown) [^177Lu-L11],–,–,–,–,–,–,–,–,–,–,–,–,–,–,–,–,–,–,fold lower uptake compared to 177Lu-L1 (PSMA(+) PC3 PIP cells): > 1.5 fold
